Legend:
Format in all cases: in vivo
Set-up in all cases: key: 5: completely killed; 4: seriously injured; 3: considerably injured; 2: somewhat injured; 1: slightly injured; 0: not injured (normally grown)
Details in all cases: 4 weeks after treatment
[1] = system: mehishiba (henry crabgrass, Digitaria cliaris); assay: Experiment 2 foliage treatment: mehishiba
Summary of the method: (§1)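 Using the Experiment 1 scoring, herbicidal effect was judged 4 weeks post-treatment. Young plants with two or three leaves, grown in soil-filled pots, received a wettable-powder spray of compound and were kept in a glass chamber meanwhile.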

[2] = system: onamomi (heartleaf cocklebur, Xanthium strumarium); assay: Experiment 3 foliage treatment: onamomi
Procedure: (§2) Upon seedling stage (two- or three-leaved stage) of ichibi (velvetleaf, Abutilon theophrasti), onamomi (heartleaf cocklebur, Xanthium strumarium) (4L stage), noasagao (blue morningglory, Ipomoea indica) and ooinutade (pale smartweed, Persicaria lapathifolia) which were grown on a cultivated soil put in pots of 1/8850 ares, a selected compound obtained in a manner analogous to Example 8, in suspended wettable powder, was sprayed to each plant. After that, the pots were kept in a glass chamber to allow each plant to grow, and after the lapse of 4 weeks from the treatment with the selected compounds the herbicidal effects were evaluated. The evaluation of the herbicidal effects was similarly conducted as to that of Experiment 1.

[3] = system: noasagao (blue morningglory, Ipomoea indica); assay: Experiment 3 foliage treatment: noasagao
Procedure: as §2

[4] = system: aobiyu (slender amaranth, Amaranthus viridis); assay: Experiment 2 foliage treatment: aobiyu
Summary of the method: as §1

paddy rice = assay: Experiment 1 flooded soil treatment: injury to paddy rice
From the text: (§3) Paddy soil (clay loam) was put into a pot so as to have a surface area of 1/15500 ares. Uniformly mixed seeds of several kinds of weeds, viz., nobie (barnyardgrass, Echinochloa spp.), broad-leaved weeds, hotarui (bulrush, Scirpus juncoides) and tamagayatsuri (small-flowered umbrellaplant, Cyperus difformis), were sown in the surface layer of the soil in each pot, and then paddy rice seedlings at the two- or three-leaved stage were transplanted into each pot to a depth of 2 cm, and water was fed into each pot so as to provide a 3 cm deep water layer on the soil surface. After 3 days, in other words at the initial stage of germination of nobie (barnyardgrass, Echinochloa spp.), a predetermined amount of a selected compound obtained in a manner analogous to Example 8 in the form of diluted aqueous solution was dropped into the water layer in each pot. After that, the pots were kept in a glass chamber to allow the paddy rice and the weeds to grow, and after the lapse of 4 weeks from the treatment with the selected compounds, the herbicidal effects and the degree of injury to the paddy rice were evaluated. In the table, the herbicidal effects and the degree of injury to the paddy rice are indicated by numerical values, which have the following meaning.
(§4) 0: not injured (normally grown)

garden radish = assay: Experiment 2 foliage treatment: garden radish
Summary of the method: as §1

[5] = system: ooinutade (pale smartweed, Persicaria lapathifolia); assay: Experiment 3 foliage treatment: ooinutade
Procedure: as §2

rice = assay: Experiment 2 foliage treatment: rice
Summary of the method: as §1

broad-leaved weeds = assay: Experiment 1 flooded soil treatment: broad-leaved weeds
From the text: as §3, §4

[6] = system: ichibi (velvetleaf, Abutilon theophrasti); assay: Experiment 3 foliage treatment: ichibi
Procedure: as §2

[7] = system: cockspur (Panicum crus-galli); assay: Experiment 2 foliage treatment: cockspur
Summary of the method: as §1

[8] = system: hotarui (bulrush, Scirpus juncoides); assay: Experiment 1 flooded soil treatment: hotarui
From the text: as §3, §4

[9] = system: nobie (barnyardgrass, Echinochloa spp.); assay: Experiment 1 flooded soil treatment: nobie
From the text: as §3, §4

[10] = system: tamagayatsuri (small-flowered umbrellaplant, Cyperus difformis); assay: Experiment 1 flooded soil treatment: tamagayatsuri
From the text: as §3, §4

| SMILES | Herbicidal Effect mehishiba ([1]; 40 g/10a) | Herbicidal Effect mehishiba ([1]; 80 g/10a) | Herbicidal Effect aobiyu ([4]; 40 g/10a) | Herbicidal Effect aobiyu ([4]; 80 g/10a) | Injury of Paddy (paddy rice; 12.5 g/10a) | Injury of Paddy (paddy rice; 25 g/10a) | Herbicidal Effect garden radish (garden radish; 40 g/10a) | Herbicidal Effect garden radish (garden radish; 80 g/10a) | Herbicidal Effect rice (rice; 40 g/10a) | Herbicidal Effect rice (rice; 80 g/10a) | Herbicidal Effect broad-leaved weed (broad-leaved weeds; 12.5 g/10a) | Herbicidal Effect broad-leaved weed (broad-leaved weeds; 25 g/10a) | Herbicidal Effect cockspur ([7]; 40 g/10a) | Herbicidal Effect cockspur ([7]; 80 g/10a) | Herbicidal Effect hotarui ([8]; 12.5 g/10a) | Herbicidal Effect hotarui ([8]; 25 g/10a) | Herbicidal Effect nobie ([9]; 12.5 g/10a) | Herbicidal Effect nobie ([9]; 25 g/10a) | Herbicidal Effect tamagayatsuri ([10]; 12.5 g/10a) | Herbicidal Effect tamagayatsuri ([10]; 25 g/10a) | other results |
| --- | --- | --- | --- | --- | --- | --- | --- | --- | --- | --- | --- | --- | --- | --- | --- | --- | --- | --- | --- | --- | --- |
| CCCOC(=O)C1=C(C(=O)N(C(C)=O)c2cc(SCC(=O)OC)c(Cl)cc2F)CCCC1 [compound 13] | 1 | 1 | 5 | 5 | 0 | 0.5 | 5 | 5 | 1 | 1 | 5 | 5 | 2 | 2 | 4 | 4 | 5 | 5 | 5 | 5 | Herbicidal Effect onamomi ([2]; 4 g/10a): 5; Herbicidal Effect onamomi ([2]; 8 g/10a): 5; Herbicidal Effect noasagao ([3]; 4 g/10a): 5; Herbicidal Effect noasagao ([3]; 8 g/10a): 5; Herbicidal Effect ooinutade ([5]; 4 g/10a): 5; Herbicidal Effect ooinutade ([5]; 8 g/10a): 5; Herbicidal Effect ichibi ([6]; 4 g/10a): 5; Herbicidal Effect ichibi ([6]; 8 g/10a): 5 |
| C#CCOC(=O)C1=C(C(=O)N(C(C)=O)c2cc(SCC(=O)OC)c(Cl)cc2F)CCCC1 [compound 15] | 1 | 1 | 4.5 | 5 | 0 | 0.5 | 5 | 5 | 1 | 1 | 5 | 5 | 1 | 1 | 4 | 4 | 5 | 5 | 4 | 5 |  |
| CCC(=O)N(C(=O)C1=C(C(=O)OC)CCCC1)c1cc(SCC(=O)OC)c(Cl)cc1F [compound 16] | 1 | 1 | 5 | 5 | 0.5 | 0.5 | 5 | 5 | 1 | 1 | 5 | 5 | 1 | 1 | 5 | 5 | 5 | 5 | 5 | 5 |  |
| CCCCCOC(=O)C1=C(C(=O)N(C(=O)CC)c2cc(SCC(=O)OC)c(Cl)cc2F)CCCC1 [compound 17] | 1 | 1 | 5 | 5 | 0 | 0.5 | 5 | 5 | 1 | 1 | 5 | 5 | 2 | 2 | 4 | 5 | 5 | 5 | 5 | 5 |  |
| COC(=O)CSc1cc(N(C(=O)C2=C(C(=O)OC)CCCC2)C(=O)c2cccc(F)c2)c(F)cc1Cl [compound 19] | 1 | 1 | 5 | 5 | 0 | 0.5 | 4 | 5 | 1 | 1 | 5 | 5 | 1 | 1 | 5 | 5 | 5 | 5 | 5 | 5 |  |
| CCOC(=O)C1=C(C(=O)N(C(=O)CC)c2cc(SCC(=O)OC)c(Cl)cc2F)CCCC1 [compound 33] | 1 | 1 | 5 | 5 |  |  | 5 | 5 | 1 | 1 |  |  | 1 | 1 |  |  |  |  |  |  | Herbicidal Effect onamomi ([2]; 4 g/10a): 5; Herbicidal Effect onamomi ([2]; 8 g/10a): 5; Herbicidal Effect noasagao ([3]; 4 g/10a): 4; Herbicidal Effect noasagao ([3]; 8 g/10a): 5; Herbicidal Effect ooinutade ([5]; 4 g/10a): 5; Herbicidal Effect ooinutade ([5]; 8 g/10a): 5; Herbicidal Effect ichibi ([6]; 4 g/10a): 5; Herbicidal Effect ichibi ([6]; 8 g/10a): 5 |
| CCCCOC(=O)C1=C(C(=O)N(C(=O)CC)c2cc(SCC(=O)OC)c(Cl)cc2F)CCCC1 [compound 35] | 1 | 1 | 5 | 5 |  |  | 5 | 5 | 1 | 1 |  |  | 1 | 2 |  |  |  |  |  |  | Herbicidal Effect onamomi ([2]; 4 g/10a): 4; Herbicidal Effect onamomi ([2]; 8 g/10a): 4; Herbicidal Effect noasagao ([3]; 4 g/10a): 4; Herbicidal Effect noasagao ([3]; 8 g/10a): 5; Herbicidal Effect ooinutade ([5]; 4 g/10a): 5; Herbicidal Effect ooinutade ([5]; 8 g/10a): 5; Herbicidal Effect ichibi ([6]; 4 g/10a): 5; Herbicidal Effect ichibi ([6]; 8 g/10a): 5 |

— US6337417B1, “N-phenyltetrahydrophthalamic acid derivatives, methods of producing same, and herbicides containing same as effective components” (Central Glass Co., Ltd., priority 1994, dated 2002)
